Data published in patent publication US20100267561A1, “HERBICIDAL PYRIDAZINONE DERIVATIVES” (priority 2007, published 2010).

Assays:
Experiment in all cases: Test B pre-/postemergence plant response
Assay type in all cases: in vivo
[1] = tested on: pigweed (Amaranthus retroflexus)
In short: (§1)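 Visual scoring from 0 (no effect) to 100 (complete control) against untreated controls was done 13 to 15 days after greenhouse treatment. Chemicals were formulated in a surfactant-containing non-phytotoxic solvent and applied to soil preemergence or to 1- to 4-leaf (2-18 cm) plants postemergence.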

[2] = tested on: blackgrass (Alopecurus myosuroides)
In short: as §1

[3] = tested on: common ragweed (Ambrosia elation)
In short: as §1

[4] = tested on: catchweed bedstraw (Galium aparine); conditions: Preemergence
In short: as §1

[5] = tested on: goosegrass (Eleusine indica)
In short: as §1

[6] = tested on: woolly cupgrass (Eriochloa villosa)
In short: as §1

[7] = tested on: giant foxtail (Setaria faberii)
In short: as §1

soybean (Glycine max) = tested on: soybean (Glycine max)
In short: as §1

[8] = tested on: Italian ryegrass (Lolium multiflorum)
In short: as §1

[9] = tested on: johnsongrass (Sorghum halepense)
In short: as §1

kochia (Kochia scoparia) = tested on: kochia (Kochia scoparia)
In short: as §1

[10] = tested on: lambsquarters (Chenopodium album)
In short: as §1

[11] = tested on: eastern black (E.B.) nightshade (Solanum ptycanthum); conditions: Preemergence
In short: as §1

[12] = Postemergence, 31 g ai/ha, scale 0 to 100, 0 no effect, 100 complete control
[13] = Postemergence, 62 g ai/ha, scale 0 to 100
[14] = Postemergence, 125 g ai/ha, scale 0 to 100
[15] = Postemergence, 250 g ai/ha, scale 0 to 100
[16] = Preemergence, 62 g ai/ha, scale 0 to 100
[17] = Preemergence, 125 g ai/ha, scale 0 to 100
[18] = Preemergence, 250 g ai/ha, scale 0 to 100
[19] = Preemergence, 31 g ai/ha, 0 to 100 scale, 0 no effect, 100 complete control
[20] = 31 g ai/ha, 0 to 100 scale, 0 no effect, 100 complete control

Compound: Cc1cc(-c2ccc(Br)cc2)nn1-c1c(OC(=O)OC(C)C)cnn(C)c1=O [Compound 6]
- Plant response rating, Pigweed [1, 12]: 0
- Plant response rating, Pigweed [1, 13]: 0
- Plant response rating, Pigweed [1, 14]: 0
- Plant response rating, Pigweed [1, 15]: 40
- Plant response rating, Pigweed [1, 16]: 0
- Plant response rating, Pigweed [1, 17]: 30
- Plant response rating, Pigweed [1, 18]: 60
- Blackgrass plant response rating ([2]; 250 g ai/ha, preemergence, 0-100 scale): 100
- Plant response rating, Blackgrass [2, 12]: 100
- Plant response rating, Blackgrass [2, 13]: 100
- Plant response rating, Blackgrass [2, 14]: 100
- Plant response rating, Blackgrass [2, 15]: 100
- Plant response rating, Blackgrass [2, 19]: 80
- Plant response rating, Blackgrass [2, 16]: 100
- Plant response rating, Blackgrass [2, 17]: 100
- Plant response rating, Ragweed [3, 12]: 0
- Plant response rating, Ragweed [3, 13]: 0
- Plant response rating, Ragweed [3, 14]: 0
- Plant response rating, Ragweed [3, 15]: 50
- Plant response rating, Ragweed [3, 19]: 0
- Plant response rating, Ragweed [3, 16]: 0
- Plant response rating, Ragweed [3, 17]: 20
- Plant response rating, Ragweed [3, 18]: 20
- Plant response rating, Galium [4, 20]: 0
- Plant response rating, Galium ([4]; 125 g ai/ha, scale 0 to 100): 70
- Plant response rating, Galium ([4]; 250 g ai/ha, scale 0 to 100): 70
- Plant response rating, Goosegrass [5, 12]: 95
- Plant response rating, Goosegrass [5, 13]: 100
- Plant response rating, Goosegrass [5, 14]: 100
- Plant response rating, Goosegrass [5, 15]: 100
- Plant response rating, Goosegrass [5, 19]: 80
- Plant response rating, Goosegrass [5, 16]: 95
- Plant response rating, Goosegrass [5, 17]: 100
- Plant response rating, Goosegrass [5, 18]: 100
- Plant response rating, Cupgrass, Woolly [6, 12]: 100
- Plant response rating, Cupgrass, Woolly [6, 13]: 100
- Plant response rating, Cupgrass, Woolly [6, 14]: 100
- Plant response rating, Cupgrass, Woolly [6, 15]: 100
- Plant response rating, Cupgrass, Woolly [6, 19]: 85
- Plant response rating, Cupgrass, Woolly [6, 16]: 85
- Plant response rating, Cupgrass, Woolly [6, 17]: 85
- Plant response rating, Cupgrass, Woolly [6, 18]: 85
- Plant response rating, Foxtail, Giant [7, 12]: 100
- Plant response rating, Foxtail, Giant [7, 13]: 100
- Plant response rating, Foxtail, Giant [7, 14]: 100
- Plant response rating, Foxtail, Giant [7, 15]: 100
- Plant response rating, Foxtail, Giant [7, 19]: 100
- Plant response rating, Foxtail, Giant [7, 16]: 100
- Plant response rating, Foxtail, Giant [7, 17]: 100
- Plant response rating, Foxtail, Giant [7, 18]: 100
- Plant response rating, Soybean (soybean (Glycine max); [12]): 0
- Plant response rating, Soybean (soybean (Glycine max); [13]): 60
- Plant response rating, Soybean (soybean (Glycine max); [14]): 75
- Plant response rating, Soybean (soybean (Glycine max); [15]): 90
- Plant response rating, Soybean (soybean (Glycine max); [19]): 0
- Plant response rating, Soybean (soybean (Glycine max); [16]): 0
- Plant response rating, Soybean (soybean (Glycine max); [17]): 40
- Plant response rating, Soybean (soybean (Glycine max); [18]): 70
- Plant response rating, Ryegrass, Italian [8, 12]: 100
- Plant response rating, Ryegrass, Italian [8, 13]: 100
- Plant response rating, Ryegrass, Italian [8, 14]: 100
- Plant response rating, Ryegrass, Italian [8, 15]: 100
- Plant response rating, Ryegrass, Italian [8, 19]: 90
- Plant response rating, Ryegrass, Italian [8, 16]: 100
- Plant response rating, Ryegrass, Italian [8, 17]: 100
- Plant response rating, Ryegrass, Italian [8, 18]: 100
- Plant response rating, Johnsongrass [9, 12]: 0
- Plant response rating, Johnsongrass [9, 13]: 0
- Plant response rating, Johnsongrass [9, 19]: 60
- Plant response rating, Johnsongrass [9, 16]: 90
- Plant response rating, Johnsongrass [9, 17]: 95
- Plant response rating, Johnsongrass [9, 18]: 100
- Plant response rating, Kochia (kochia (Kochia scoparia); [12]): 0
- Plant response rating, Kochia (kochia (Kochia scoparia); [13]): 0
- Plant response rating, Kochia (kochia (Kochia scoparia); [14]): 20
- Plant response rating, Kochia (kochia (Kochia scoparia); [15]): 20
- Plant response rating, Kochia (kochia (Kochia scoparia); [19]): 0
- Plant response rating, Kochia (kochia (Kochia scoparia); [16]): 0
- Plant response rating, Kochia (kochia (Kochia scoparia); [17]): 20
- Plant response rating, Kochia (kochia (Kochia scoparia); [18]): 60
- Plant response rating, Lambsquarters [10, 12]: 0
- Plant response rating, Lambsquarters [10, 13]: 0
- Plant response rating, Lambsquarters [10, 14]: 20
- Plant response rating, Lambsquarters [10, 15]: 70
- Plant response rating, Lambsquarters [10, 19]: 0
- Plant response rating, Lambsquarters [10, 17]: 85
- Plant response rating, Lambsquarters [10, 18]: 95
- Plant response rating, Nightshade, E. B. [11, 20]: 0
- Plant response rating, Nightshade, E. B. ([11]; 125 g ai/ha, scale 0 to 100): 90
- Plant response rating, Nightshade, E. B. ([11]; 250 g ai/ha, scale 0 to 100): 90
